From ChEMBL document CHEMBL1154834, “A theoretical study of the structure-radical scavenging activity of trans-resveratrol analogues and cis-resveratrol in gas phase and water environment” (Eur J Med Chem, 2010) come the findings set out here.

The structures appear in SMILES notation.

A short description of the experiment: Antioxidant activity assessed as concentration required to double citronellal oxidation half life by thermo-oxidation method relative to control. The format is functional.
Take `Oc1ccc(/C=C/c2cc(O)cc(O)c2)cc1`: the Activity came to 135 µM. The value for `Oc1ccc(CCc2cc(O)cc(O)c2)cc1` was 260 µM; that for `Oc1ccc(/C=C\c2cc(O)cc(O)c2)cc1` was 241 µM.
